Laboratory results: patent US6180629A, “[4,5]-Fused-1,3-disubstituted-1,2-diazine-6-one derivatives with nitrogen containing substitutents in position one for the treatment of neoplasia” (Cell Pathways, Inc., priority 1998, dated 2001)

Assays:
[1] = system: human colon carcinoma cell line, SW-480; assay: Growth inhibition of SW-480 human colon carcinoma cells, Sulforhodamine B (SRB) protein binding assay, six days; assay type: cell-based; details: SW480, 144 h
Experimental: The compounds of Examples 1-3 were assayed for their growth inhibitory activity on the human colon carcinoma cell line, SW-480 obtained from ATCC (Rockville, Md.), to ascertain the degree of growth inhibition. Growth inhibition of this cell line is indicative of a benefit on precancerous lesions and neoplasms. The cell line and growth assay employed for such experiments are well characterized, and are used to evaluate the anti-neoplastic properties of NSAIDs. The assay is used by the United States National Cancer Institute in its screening program for new anti-cancer drugs.
Drug stock solutions were made in 100% DMSO and were then diluted with RPMI media for cell culture testing. All drug solutions were prepared fresh on the day of testing. The cultured cells were obtained at passage #99 and grown in RPMI media supplemented with 5% fetal calf serum, and 2 mM glutamine, 100 u/ml penicillin, 100 U/ml streptomycin, and 0.25 μg/ml amphotericin. The cultures were maintained in a humidified atmosphere of 95% air and 5% CO2 at 37° C. The cultures were passaged at preconfluent densities using a solution of 0.05% trypsin and 0.53 mM EDTA. Cells were plated at 1000 cells/well for 96 well flat-bottom microtiter plates.
Tumor cell growth inhibition was assessed using the Sulforhodamine B (SRB) protein binding assay. In this assay, tumor cells were plated in 96-well plates and treated with drug-containing media for six days (continuous exposure). For each plate, 6 wells were designated as no treatment controls, six wells as vehicle (0.1% DMSO) controls, and the remaining wells for drug dilutions with three wells per drug concentration. At the end of the exposure period, the cells were fixed and stained with sulforhodamine B, a protein binding dye. The dye was then solubilized, and the optical density of the resulting solution was determined on a 96-well plate reader. The mean dye intensity of the treated wells was then divided by the mean dye intensity in the control wells (6 wells of each) to determine the effect of the drug on the cells. Dye intensity is proportional to the number of cells or amount of protein per well. The resultant "percent inhibition" value then represents the degree of growth inhibition caused by the drug.
An IC50 value was also determined for the compound of Example 3. This value is equivalent to the concentration of drug needed to inhibit tumor cell growth by 50% relative to a vehicle control. IC50 value was obtained graphically by connecting the mean values for each drug concentration tested. Each experiment included at least three wells per drug concentration. Concentration was plotted on a log scale on the X-axis.

[2] = system: SW-480 colon adenocarcinoma cells; assay: Apoptosis (DNA fragmentation) in SW-480 colon adenocarcinoma cells, Cell Death Detection ELISA; assay type: cell-based, human; details: for Apoptosis Level (Mean OD Value ± SD): vehicle 0.175 ± 0.02; for EC50 / fold induction at 100 µM: SW-480, 48 hrs; for fold induction at 100 µM: SW480, read-out: DNA Fragmentation FS (Fold stimulation, FS=ODmax/ODveh)
Experimental: Apoptosis was measured using an assay of cell death based on a characteristic feature of apoptotic cells (i.e., fragmented DNA). Briefly, SW-480 colon adenocarcinoma cells were plated in 96-well microtitre plates ("MTP") at a density of 10K cells/well in 180 μl and were incubated for 24 hrs. Cells were then treated with 20 μl aliquots of appropriately diluted compound, and allowed to incubate for an additional 48 hrs.
After the incubation, samples were prepared according to the following steps. The MTP was centrifuged (15 min., 1000 rpm) and the supernatant was carefully removed by fast inversion of the MTP. The cell pellets in each well were resuspended in 200 μl lysis buffer and incubated for 45 min. at room temperature to lyse the cells. The lysates were then centrifuged (15 min., 1000 rpm) and 20 μl aliquots of the supernatant (=cytoplasmicfraction) were transferred into the streptavidin coated MTP for analysis. Care was taken not to shake the lysed pellets in the MTP (=cell nucleii containing high molecular weight, unfragmented DNA). Samples were analyzed immediately, because storage at 4° C. or -20° C. reduces the ELISA-signals.
Samples were then processed according to a DNA fragmentation assay protocol, and dose-response curves were generated based on optical density readings. Quantification of DNA was done by a commercially available photometric enzyme-immunoassay manufactured by Mannheim-Boehringer under the name "Cell Death Detection ELISA^plus ". The assay is based on a quantitative sandwich-enzyme-immunoassay-principle using mouse monoclonal antibodies directed against DNA and histones, respectively. This allows the specific determination of mono and oligonucleosomes in the cytoplasmatic fraction of cell lysates. In brief, the assay procedure is as follows. The sample (cell-lysate, serum, culture-supernatant etc.) is placed into a streptavidin-coated MTP. Subsequently, a mixture of anti-histone-biotin and anti-DNA-POD is followed by incubation for 2 hours. During the incubation period, the anti-histone antibody binds to the histone-component of the nucleosomes and simultaneously fixes the immunocomplex to the streptavidin-coated MTP via its biotinylation. Additionally, the anti-DNA-POD antibody reacts with the DNA component of the nucleosomes. After removal of unbound antibodies by a washing step, the amount of nucleosomes is quantified by the POD retained in the immunocomplex. POD is determined photometrically with ABTS® (2,2'-Azino-di[3-ethylbenzthiazolin-sulfonat]) as substrate.
Fold stimulation (FS=ODmax/ODveh), an indicator of apoptotic response, was determined for each compound tested.

colonic polyps = details: patients; cited from earlier work
[3] = chronic administration, high cancer-risk patients; cited from earlier work

Compound: O=C(Cn1nc(-c2ccc(Cl)cc2)c2ccccc2c1=O)NCc1ccccc1 [Example 3, 2-[4-(4-Chlorophenyl)-1-Oxo-Phthalazin-2-yl]-N-Benzylethanamide]
- inhibition at 100 µM ([1]; six days continuous exposure): 86.1%
- activity at 0.001 µM ([1]; Dose 0.001 μM, read-out: Growth Inhibition (% Vehicle ± SD)): 105 ± 20%
- activity at 0.01 µM ([1]; Dose 0.01 μM, read-out: Growth Inhibition (% Vehicle ± SD)): 99 ± 11.9%
- activity at 0.1 µM ([1]; Dose 0.1 μM, read-out: Growth Inhibition (% Vehicle ± SD)): 91 ± 5%
- activity at 1 µM ([1]; Dose 1.0 μM, read-out: Growth Inhibition (% Vehicle ± SD)): 94 ± 17.9%
- activity at 10 µM ([1]; Dose 10.0 μM, read-out: Growth Inhibition (% Vehicle ± SD)): 34 ± 17.8%
- activity at 100 µM ([1]; Dose 100.0 μM, read-out: Growth Inhibition (% Vehicle ± SD)): 6 ± 1.6%
- IC50 ([1]; six days continuous exposure, read-out: IC50 (tumor cell growth, relative to vehicle control)): 5.18 µM
- Apoptosis Level (Mean OD Value ± SD) ([2]; Dose 0.001 μM): 0.156 ± 0.02 OD
- Apoptosis Level (Mean OD Value ± SD) ([2]; Dose 0.01 μM): 0.165 ± 0.03 OD
- Apoptosis Level (Mean OD Value ± SD) ([2]; Dose 0.1 μM): 0.161 ± 0.02 OD
- Apoptosis Level (Mean OD Value ± SD) ([2]; Dose 1.0 μM): 0.208 ± 0.01 OD
- Apoptosis Level (Mean OD Value ± SD) ([2]; Dose 10.0 μM): 1.789 ± 0.32 OD
- Apoptosis Level (Mean OD Value ± SD) ([2]; Dose 100.0 μM): 2.763 ± 0.29 OD
- EC50 ([2]; Homo sapiens, SW480, 48 h): 7.2 µM
- fold induction at 100 µM ([2]; Homo sapiens): 6.1
- EC50 [2]: 7.19 µM

Compound: O=C(Cn1nc(-c2ccccc2)c2ccccc2c1=O)NCc1ccccc1 [Example 1, 2-(1-Oxo-4-Phenylphthalazin-2-yl)-N-Benzylethanamide]
- inhibition at 100 µM ([1]; six days continuous exposure): 90%
- fold induction at 100 µM ([2]; Homo sapiens): 7.3

Compound: O=C(Cn1nc(-c2ccc(F)cc2)c2ccccc2c1=O)NCc1ccccc1 [Example 2]
- inhibition at 100 µM ([1]; six days continuous exposure): -7.8%
- fold induction at 100 µM ([2]; Homo sapiens): 1.2

Compound: CC1=C(CC(=O)O)c2cc(F)ccc2/C1=C\c1ccc([S+](C)[O-])cc1 (centres unmarked) [sulindac]
- effect on colonic polyps (colonic polyps): Polyps virtually disappear
- gastric side effects [3]: causes gastric side effects in many such patients
